For this test, the target named is T1, MeCP2-TBL1 interaction (MeCP2-SmBiT / TBL1-LgBiT) (Mus musculus, UniProt Q9QXE7).
T1 construct: expressed in transfected cells; crude lysate used as a cell-free assay
T1 sequence (Q9QXE7 166-527): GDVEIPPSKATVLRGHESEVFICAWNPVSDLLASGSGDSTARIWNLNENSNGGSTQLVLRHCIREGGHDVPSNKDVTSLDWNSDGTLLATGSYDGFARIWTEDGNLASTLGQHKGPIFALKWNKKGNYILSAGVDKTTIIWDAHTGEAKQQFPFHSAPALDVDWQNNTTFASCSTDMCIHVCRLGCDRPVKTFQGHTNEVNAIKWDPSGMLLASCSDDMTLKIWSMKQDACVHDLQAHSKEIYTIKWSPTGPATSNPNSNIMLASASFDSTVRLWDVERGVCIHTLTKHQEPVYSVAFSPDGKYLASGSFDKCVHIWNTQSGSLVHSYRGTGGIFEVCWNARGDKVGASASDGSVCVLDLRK
Put plainly: MeCP2-TBL1 NanoLuc luciferase complementation assay (cell-free, extracts of transfected HEK293 cells).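 For Inhibition percent: each compound tested at 20 µM final concentration.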 Format: binding, human. Put shortly: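 Cell-free split NanoLuc: lysate of HEK293 cells co-expressing the MeCP2 C-terminal half-SmBiT and TBL1 WD domain-LgBiT, mixed 1:1 with furimazine. After 30 min at room temperature, luminescence was plate-median normalized.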

Where [1] appears, read: primary screen of the Asinex library, sheet "Sargen output Asinex library", one well per compound.
[2] abbreviates: primary screen of the Asinex library, sheet "Sargen output Asinex library", one well per compound, Batch Ref. 1.
The mark [3] stands for this setting: primary screen of Asinex library, single well per compound.

Ends that are not written are not given here. * marks the point of attachment. Biotin = O=C1N[C@H]2[C@H](CS[C@H]2CCCCC(=O)*)N1

In the case of “35 amino acid peptide: 35 amino acid MeCP2 wild-type NID peptide (residues 285-319), N-terminal biotin (Biotin-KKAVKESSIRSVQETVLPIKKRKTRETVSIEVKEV; UniProt P51608 285-319, looked up, fragment) [reference compound]”, where the note is “peptide at 20 µM, n = 2”, the “effect of competitor peptide on MeCP2-TBL1 luminescence signal” value is “strongly inhibited”.
Consider `O=C1CNC(=O)C2(C/C=C/C[C@H]3COCC[C@H]3N1)CCN(C(=O)/C=C/c1ccccc1)CC2` [BDH_33728358], for which the Inhibition percent under setting [1] is listed as -2.28%.
With `Cc1cnn(CC(=O)N2CCC3(C/C=C/CCOc4ccccc4C(=O)NCCCNC3=O)CC2)c1` [BDH_33775476], the Inhibition percent under setting [2] amounted to 1.29%.
For the compound `Cc1ccc(C(=O)N2C[C@@H](c3ccc(F)cc3)[C@@]3(CCCC(=O)N3)C2)cc1NCc1ccccn1` [BDH_32371225], under setting [3], the Inhibition percent is -3.76.
In the case of `Cc1cccc(Cc2cccc(C3CCCN(C(=O)c4ccnc(N5CCOCC5)c4)C3)n2)c1` (centres unmarked) [BDH_32361750], under setting [1], the Inhibition percent is -1.55%.
For the compound `O=C(CN1CCNCC1c1ccc(C(F)(F)F)cc1)NC(c1ccccc1)c1ccccc1` (centres unmarked) [BDH_33620941], under setting [3], the Inhibition percent was -0.43.
For `C[C@@]12C[C@H](c3ccccc3)N(C(=O)CCCn3cccn3)[C@@H]1CCC[C@@H](O)[C@@H]2O` [BDH_33903800], the Inhibition percent under setting [3] is 0.83.
Regarding `O=C1CCC[C@]2(CN(Cc3cccc(-c4ccccc4F)c3)C[C@H]2c2ccc(F)c(F)c2)N1` [BDD_23570819], under setting [2], the Inhibition percent came to 11.60%.
For the compound `COc1cccc([C@@H]2C[C@]3(C)NC(=O)CCCC[C@@H]3N2CC(=O)Nc2ccc3[nH]c(=O)[nH]c3c2)c1` [BDH_33615500], the Inhibition percent under setting [1] is reported as -1.75%.
With `COc1cccc([C@@H]2C[C@]3(C)NC(=O)CCCC[C@@H]3N2CC(=O)Nc2cccc(C)c2C)c1` [BDH_33621286], under setting [2], the Inhibition percent is reported as 2.19%.
Turning to `CNC(=O)c1cc(C)nc(C2(C)CCN(C(=O)c3ccc(C)c(NCc4ccccn4)c3)CC2)n1` [BDH_32371078], the Inhibition percent under setting [1] was found to be 4.95%.
With `CC(C)CCC[C@]1(C)Oc2ccccc2[C@H]2OCC3(CCCN3)C[C@@H]21` (some centres unmarked) [BDG_34020347], the Inhibition percent under setting [2] was found to be 1.89%.
On the same count and under the same terms, as for `CNC(=O)c1cnn2c(C3CCCN(C(=O)c4ccnc(Cc5cccc(F)c5)c4)C3)ccnc12` (centres unmarked) [BDH_33521351], the figure is -0.09%.
With `CC(=O)N(C)Cc1cc(N(C)C)nc(C2CCCN2C(=O)Cc2ccc3c(c2)CCCC3)n1` (centres unmarked) [BDE_23426204], the Inhibition percent under setting [1] is -14.24%.
As for `Cc1nccn1Cc1ccccc1C(=O)N1CCCC(Cc2cccc3ccncc23)CC1` (centres unmarked) [BDH_32339307], under setting [3], the Inhibition percent is listed as -0.56.
Same read-out and setting: as for `COCC(=O)N1CCC(C)(C(=O)N2CCCC2c2ccnc(-c3cccc(Cl)c3)n2)CC1` (centres unmarked) [BDH_32373816], the figure is 0.44.
For `C[C@@]12C[C@H](c3ccccc3)N(C(=O)CCc3c[nH]c4ccccc34)[C@@H]1CCC[C@@H](O)[C@H]2O` [BDH_33903568], under setting [2], the Inhibition percent is given as 3.00%.
For `Cn1ccnc1-c1nccnc1C1CCN(C(=O)c2ccnc(Cc3cccc(F)c3)c2)CC1` [BDH_33521386], the Inhibition percent under setting [2] is on record as -2.61%.
Take `O=C1CCCC[C@]2(CN(Cc3ccnc(N4CCCCC4)n3)C[C@H]2c2cccc(F)c2)N1` [BDH_32353019]: under setting [2], the Inhibition percent came out at 1.21%.
Same read-out and setting: as for `Oc1cccc2c1OC1(CCN(Cc3ccccc3)CC1)[C@H]1CCCO[C@H]21` [BDG_33900148], the figure is 0.73%; as for `COc1cccc(-c2cc(C(=O)N3[C@H]4CCC[C@H]5N(C)[C@@H](Cc6ccccc6)[C@@H]3C[C@@]45C)[nH]n2)c1` [BDG_33504530], 8.58%.
Same read-out and setting: as for `CC(=O)N[C@@]12CN(C)CC[C@@H]1[C@@H](c1ccccc1)N(CC(=O)Nc1ccc3c(c1)nc(C)n3C)C2` [BDH_33618117], the figure is 4.04%; as for `O=C(O)CCC(=O)N[C@@H]1C[C@@H](Oc2cccc(Cl)c2)[C@H](O)[C@H]1N1CCc2ccccc2C1` [BDG_34049608], -0.68%.
